# Legend:
# GAT-1 (SLC6A1^+/S295L) = test: 3H GABA uptake, cortical astrocytes from SLC6A1^+/S295L knockin mice; type: cell-based, mouse; conditions: S295L heterozygous astrocytes; PBA 2 mM, 24 hr; SNAP5114 30 μM
# Procedure: Mouse cortical astrocytes or neurons were cultured from postnatal pus at day 0-3 days old for astrocytes and day 0 for neurons from the SLC6A1^+/A288V or SLC6A1^+/S295L mouse line. FIGS. 7A-B show astrocytes under passage 2 were grown in […] dishes and passaged into 35-mm^2 dishes before GABA uptake assay.
# FIGS. 7C-D show neurons directly cultured in the 35-mm^2 dishes and GABA uptake was evaluated between day 15-17 days after culture. CI-966 (50 μM) and NNC711 (35 μM) was applied 30 min before preincubation and removed during preincubation. GAT-3 inhibitor SNAP5114 (30 μM) was applied during GABA uptake to make sure only GAT-1 activity was measured. The wildtype astrocytes (FIGS. 7A-B) or cortical neurons (FIGS. 7C-D) of either SLC6A1^+/A288V or SLC6A1^+/S295L were taken as 1. The cultures derived from each mutant mouse was compared to the culture from its own wildtype littermates. […] The wildtype data were pooled from two mouse lines. […] The graph represents the relative GABA uptake level normalized to cells of its own genotype treated with DMSO. CI-966 (50 μM) or NNC-711 (35 μM) was applied 30 min before preincubation and removed during preincubation. Two-way analysis of variance followed by Bonferroni multiple comparison test was used. Values were expressed as mean±S.E.M. In FIG. 7A and FIG. 7C, ***p<0.001 vs. wt; § § § P<0.001 S295L vs. A288V. […]
# SLC6A1 gene expression = test: RT-qPCR of SLC6A1 gene expression, mouse whole-brain tissue; type: in vivo; conditions: wild-type and SLC6A1^+/S295L mice; PBA for 7 days; whole-brain RNA
# Text: FIGS. 14A-B show RT-qPCR data from a cohort of nine wild-type mice (FIG. 14A) and seven SLC6A1^+/S295L mice (FIG. 14B). […] Total RNA was extracted from mouse whole-brain tissue.
smiles,measurement,setting,value
"O=C(O)CCCc1ccccc1 [PBA, 4-phenylbutyric acid]",GABA uptake activity normalized to its own DMSO condition,GAT-1 (SLC6A1^+/S295L),1.54±0.13
same,"SLC6A1 gene expression, treated vs. untreated mice",SLC6A1 gene expression,no significant difference

# — patent US20260144769A1, “4-PHENYLBUTYRATE RESTORED GABA UPTAKE AND REDUCED SEIZURES IN SLC6A1 VARIANT-MEDIATED DISORDERS” (Vanderbilt University, priority 2022, published 2026)
